The values that follow come from patent US12076306B2, “Prodrugs of fumarates and their use in treating various diseases” (Alkermes Pharma Ireland Limited, priority 2013, dated 2024).

Counter-ions that a name gives are not always drawn.

The nature of one data set: Aqueous chemical stability, 50 mM phosphate buffer pH 8, HPLC-UV (Table 4). It is filed as physicochemical. The conditions noted are these: 50 mM buffer phosphate pH 8, 37° C., HPLC UV 211 nm. Here is the method: Stock solutions of the compounds in acetonitrile or acetonitrile/MeOH were prepared at 0.05M. A 0.010 mL aliquot of the stock was spiked into 1 mL of 50 mM buffer phosphate pH 8 and incubated at 37° C. Typically, aliquots (0.010 mL) were sampled at different time points and immediately injected in the HPLC with UV detection (211 nm). The peak areas corresponding to the compounds were plotted against time and the data were fitted to a first-order mono-exponential decay where the rate constant and the half-life were determined from the slope (Table 4).
Regarding `COC(=O)/C=C/C(=O)OCCNC(C)=O` [Compound 43, 2-Acetamidoethyl methyl fumarate], the “pH 8 (t ½, min)” value is listed as 177.5 min.
Still for that read-out and setting: as for `COC(=O)/C=C/C(=O)OCCN1CCOC(C)(C)C1` [Compound 28, 2-(2,2-dimethylmorpholino)ethyl methyl fumarate hydrochloride], the figure is less than 10 min.
On the same count and under the same terms, as for `COC(=O)/C=C/C(=O)OCCN1CCOC(=O)C1` [Compound 31, Methyl (2-(2-oxomorpholino)ethyl) fumarate hydrochloride], the figure is 26 min; as for `COC(=O)/C=C/C(=O)OCCN1CCOC1=O` [Compound 39, Methyl (2-(2-oxooxazolidin-3-yl)ethyl) fumarate], 183 min.
The same measure, in the same setting: as for `COC(=O)/C=C/C(=O)OCCCN1C(=O)CCC1=O` [Compound 133, 3-(2,5-Dioxopyrrolidin-1-yl)propyl methyl fumarate], the figure is 246 min; as for `COC(=O)/C=C/C(=O)OCCN1CCC(F)(F)CC1` [Compound 5, 2-(4,4-difluoropiperidin-1-yl)ethyl methyl fumarate hydrochloride], 24 min.
Regarding `COC(=O)/C=C/C(=O)OCCN1C(=O)CC(C)(C)C1=O` [Compound 37, 2-(3,3-Dimethyl-2,5-dioxopyrrolidin-1-yl)ethyl methyl fumarate], the “pH 8 (t ½, min)” value is on record as 182 min.
On to `COC(=O)/C=C/C12COC(C)(CO1)CO2` [Compound 130, (E)-Methyl 3-(4-methyl-2,5,7-trioxabicyclo[2.2.2]octan-1-yl)acrylate], for which the “pH 8 (t ½, min)” value worked out at 1010 min.
Still for that read-out and setting: as for `COC(=O)/C=C/C(=O)OCCN1CC(C)OC(C)C1` (centres unmarked) [Compound 29, 2-(2,6-dimethylmorpholino)ethyl methyl fumarate hydrochloride], the figure is less than 10 min; as for `COC(=O)/C=C/C(=O)OCCN1C(=O)C2CC2C1=O` (centres unmarked) [Compound 22, 2-(2,4-Dioxo-3-azabicyclo[3.1.0]hexan-3-yl)ethyl methyl fumarate], 144 min; as for `COC(=O)/C=C/C(=O)OCCN1CCOCC1=O` [Compound 30, Methyl (2-(3-oxomorpholino)ethyl) fumarate], 229 min.
The same measure, in the same setting: as for `COC(=O)/C=C/C(=O)OCCN1C(=O)[C@@H](C)[C@@H](C)C1=O` [Compound 23, 2-((3R,4S)-3,4-Dimethyl-2,5-dioxopyrrolidin-1-yl)ethyl methyl fumarate], the figure is 186 min.
On the same count and under the same terms, as for `COC(=O)/C=C/C(=O)OCC[N+]1([O-])CCOCC1` [Compound 26, (E)-4-(2-((4-methoxy-4-oxobut-2-enoyl)oxy)ethyl)morpholine 4-oxide], the figure is 129 min; as for `COC(=O)/C=C/C(=O)OCCN1CCOC(CN(C)C)C1` (centres unmarked) [Compound 33, 2-(2-((Dimethylamino)methyl)morpholino)ethyl methyl fumarate hydrochloride], 115 min; as for `COC(=O)/C=C/C(=O)OC(C)CN(C)C` (centres unmarked) [Compound 6, 1-(dimethylamino)propan-2-yl methyl fumarate hydrochloride], 2 min.
As to `COC(=O)/C=C/C(=O)OCC[N+](C)(C)C` [Compound 4, (E)-2-((4-methoxy-4-oxobut-2-enoyl)oxy)-N,N,N-trimethylethanaminium iodide], the “pH 8 (t ½, min)” value was 30 min.
Still for that read-out and setting: as for `COC(=O)/C=C/C(=O)OCCN1CCCC1=O` [Compound 38, Methyl (2-(2-oxopyrrolidin-1-yl)ethyl) fumarate], the figure is 201 min.
In the case of `COC(=O)/C=C/C(=O)OCCN(C(C)=O)C(C)=O` [Compound 44, 2-(N-Acetylacetamido)ethyl methyl fumarate], the “pH 8 (t ½, min)” value was 145 min.
`COC(=O)/C=C/C(=O)OCCNC(=O)OC(C)(C)C` [Compound 48, 2-((tert-butoxycarbonyl)amino)ethyl methyl fumarate]: the “pH 8 (t ½, min)” value came to 220 min.
`COC(=O)/C=C/C(=O)OCCN(CC(=O)O)CC(=O)O` [Compound 1, (E)-2,2′-((2-((4-methoxy-4-oxobut-2-enoyl)oxy)ethyl)azanediyl)diacetic acid hydrochloride]: the “pH 8 (t ½, min)” value stood at 15 min.
Still for that read-out and setting: as for `C#CCOC(=O)/C=C/C(=O)OC` [Compound 131, Methyl prop-2-yn-1-yl fumarate], the figure is 96 min; as for `CCC(=O)N(CCOC(=O)/C=C/C(=O)OC)C(=O)CC` [Compound 42, Methyl (2-(N-propionylpropionamido)ethyl) fumarate], 158 min; as for `COC(=O)/C=C/C(=O)OCCN1C(=O)NC(C)(C)C1=O` [Compound 40, 2-(4,4-Dimethyl-2,5-dioxoimidazolidin-1-yl)ethyl methyl fumarate], 203 min.
Regarding `COC(=O)/C=C/C(=O)OCCN1CC2CCC(C1)O2` [Compound 32, 2-(8-Oxa-3-azabicyclo[3.2.1]octan-3-yl)ethyl methyl fumarate hydrochloride], the “pH 8 (t ½, min)” value was 13 min.
On the same count and under the same terms, as for `COC(=O)/C=C/C(=O)OCCN1C(=O)COCC1=O` [Compound 27, 2-(3,5-dioxomorpholino)ethyl methyl fumarate], the figure is 37 min; as for `COC(=O)/C=C/C(=O)OCCN(C)C` [Compound 19, 2-(dimethylamino)ethyl methyl fumarate hydrochloride], 117 min.

A further data set in a line: Physical stability in crystalline form by thermogravimetric analysis (TGA). It is filed as physicochemical. The conditions noted are these: DMF loss in less than 4 hours. On the procedure: The physical stability of compounds of the present invention and DMF were measured via thermogravimetric analysis (TGA).
On to `COC(=O)/C=C/C(=O)OCCN1C(=O)CCC1=O` [Compound 14, 2-(2,5-dioxopyrrolidin-1-yl)ethyl methyl fumarate], for which the “weight loss at 60° C. vs time” value is “no change”.
For the molecule `COC(=O)/C=C/C(=O)OC` [DMF, Dimethyl fumarate, reference compound], the “weight loss at 60° C. vs time” value is given as roughly 100%.

The next data set is described as follows: Aqueous chemical stability, 100 mM phosphate buffer, HPLC (Table 3). The following applies: buffer phosphate (100 mM), 37° C., half-lives >360 min estimated from initial slope. It is filed as physicochemical. Here is the method: Stock solutions of the compounds in acetonitrile or acetonitrile/methanol were prepared at 20 mg/mL and 20 μL, spiked into 3 mL of buffer phosphate (100 mM) and incubated at 37° C. Aliquots (50 μL) were sampled at different time points and diluted 20 fold with ammonium formate (pH 3.5)/acetonitrile. The diluted samples were analyzed by HPLC. The peak areas corresponding to the compounds were plotted against time and the data were fitted to a first-order mono-exponential decay where the rate constant and the half-life were determined (Table 3).
As for `COC(=O)/C=C/C(=O)OCCN1CCOCC1` [Compound 16, Methyl (2-morpholinoethyl) fumarate hydrochloride], the “pH 8 (t ½, min)” value was 20.0 min.
On the same count and under the same terms, as for `CCN(CC)C(=O)COC(=O)/C=C/C(=O)OC` [Reference Compound A, 2-(diethylamino)-2-oxoethyl methyl fumarate, reference compound], the figure is 120 min.
On the same count and under the same terms, as for `COC(=O)/C=C/C(=O)OCC(C)(C)N(C)C` [Compound 9, 2-(dimethylamino)-2-methylpropyl methyl fumarate hydrochloride], the figure is 7.0 min; as for `COC(=O)/C=C/C(=O)OCCS(C)(=O)=O` [Compound 10, Methyl (2-(methylsulfonyl)ethyl) fumarate], 67.0 min; as for `COC(=O)/C=C/C(=O)OCCN1CCCC1` [Compound 18, Methyl (2-(pyrrolidin-1-yl)ethyl) fumarate hydrochloride], 5.0 min.
On the same count and under the same terms, as for `COC(=O)/C=C/C(=O)OCCN1CCC(F)(F)CC1` [Compound 5, 2-(4,4-difluoropiperidin-1-yl)ethyl methyl fumarate hydrochloride], the figure is 24 min.
As for `COC(=O)/C=C/C(=O)OCCNc1ccccc1` [Compound 8, Methyl (2-(phenylamino)ethyl) fumarate hydrochloride], the “pH 8 (t ½, min)” value is listed as 36.0 min.
Turning to `COC(=O)/C=C/C(=O)OCCN1CCSCC1` [Compound 7, Methyl (2-thiomorpholinoethyl) fumarate hydrochloride], the “pH 8 (t ½, min)” value was 26.0 min.
For `CCN(CC)CCOC(=O)/C=C/C(=O)OC` [Compound 20, 2-(diethylamino)ethyl methyl fumarate hydrochloride], the “pH 8 (t ½, min)” value is listed as 5.0 min.
On the same count and under the same terms, as for `COC(=O)/C=C/C(=O)OCCN1CCCCC1` [Compound 15, Methyl (2-(piperidin-1-yl)ethyl) fumarate hydrochloride], the figure is 3.0 min.
The same measure, in the same setting: as for `COC(=O)/C=C/C(=O)OC(C)CN(C)C` (centres unmarked) [Compound 6, 1-(dimethylamino)propan-2-yl methyl fumarate hydrochloride], the figure is 2.0 min; as for `COC(=O)/C=C/C(=O)OCC[N+](C)(C)C` [Compound 4, (E)-2-((4-methoxy-4-oxobut-2-enoyl)oxy)-N,N,N-trimethylethanaminium iodide], 45 min.
As for `COC(=O)/C=C/C(=O)OCCN(CC(=O)O)CC(=O)O` [Compound 1, (E)-2,2′-((2-((4-methoxy-4-oxobut-2-enoyl)oxy)ethyl)azanediyl)diacetic acid hydrochloride], the “pH 8 (t ½, min)” value is recorded as 15 min.
As to `COC(=O)/C=C/C(=O)OCCN1CCC2(CC1)OCCO2` [Compound 17, 2-(1,4-dioxa-8-azaspiro[4.5]decan-8-yl)ethyl methyl fumarate hydrochloride], the “pH 8 (t ½, min)” value is given as 11.0 min.
Regarding `COC(=O)/C=C/C(=O)OCCN(C)C` [Compound 19, 2-(dimethylamino)ethyl methyl fumarate hydrochloride], the “pH 8 (t ½, min)” value is 6.0 min.
The same measure, in the same setting: as for `COC(=O)/C=C/C(=O)OCCN1CCS(=O)(=O)CC1` [Compound 11, 2-(1,1-dioxidothiomorpholino)ethyl methyl fumarate hydrochloride], the figure is greater than 240 min.
